# Test results as given in ChEMBL document CHEMBL1151339, “Antitumor agents from bohemic acid complex, III. The isolation of marcellomycin, musettamycin, rudolphomycin, mimimycin, collinemycin, alcindoromycin, and bohemamine” (J Nat Prod, 1980).
# Experiments:
# Mus musculus [1] = assay: Toxicity in BDF1 mouse xenografted with mouse L1210 cells assessed as survival at 6.4 mg/kg, ip after 5 days; format: organism-based; design: dose 6.4 mg/kg, route intraperitoneal; conditions: in vivo, 120 h
# Mus musculus [2] = assay: Toxicity in BDF1 mouse xenografted with mouse L1210 cells assessed as survival at 3.2 mg/kg, ip after 5 days; format: organism-based; design: dose 3.2 mg/kg, route intraperitoneal; conditions: in vivo, 120 h
# Mus musculus [3] = assay: Toxicity in BDF1 mouse xenografted with mouse L1210 cells assessed as survival at 1.6 mg/kg, ip after 5 days; format: organism-based; design: dose 1.6 mg/kg, route intraperitoneal; conditions: in vivo, 120 h
# Mus musculus [4] = assay: Toxicity in BDF1 mouse xenografted with mouse L1210 cells assessed as survival at 51.2 mg/kg, ip after 5 days; format: organism-based; design: dose 51.2 mg/kg, route intraperitoneal; conditions: in vivo, 120 h
# Mus musculus [5] = assay: Toxicity in BDF1 mouse xenografted with mouse L1210 cells assessed as survival at 25.6 mg/kg, ip after 5 days; format: organism-based; design: dose 25.6 mg/kg, route intraperitoneal; conditions: in vivo, 120 h
# Pseudomonas aeruginosa = assay: Antibacterial activity against Pseudomonas aeruginosa A-9843A by 2-fold tube dilution method; format: functional
# Enterococcus faecalis = assay: Antibacterial activity against Streptococcus faecalis A20688 by 2-fold tube dilution method; format: functional
# Staphylococcus = assay: Antibacterial activity against penicillin resistant Staphylococcus A-9606 by 2-fold tube dilution method; format: functional
# Streptococcus pneumoniae = assay: Antibacterial activity against Streptococcus pneumoniae A-9585 by 2-fold tube dilution method; format: functional
# Streptococcus pyogenes = assay: Antibacterial activity against Streptococcus pyogenes A-9604 by 2-fold tube dilution method; format: functional
# Staphylococcus aureus = assay: Antibacterial activity against Staphylococcus aureus A-9497 by 2-fold tube dilution method; format: functional
# Escherichia coli [6] = assay: Antibacterial activity against Escherichia coli A15119 by 2-fold tube dilution method; format: functional
# Escherichia coli [7] = assay: Antibacterial activity against Escherichia coli A20341-1 by 2-fold tube dilution method; format: functional
# Klebsiella pneumoniae = assay: Antibacterial activity against Klebsiella pneumoniae A15130 by 2-fold tube dilution method; format: functional
# Proteus mirabilis = assay: Antibacterial activity against Proteus mirabilis A-9900 by 2-fold tube dilution method; format: functional
# Proteus vulgaris = assay: Antibacterial activity against Proteus vulgaris A21559 by 2-fold tube dilution method; format: functional
# Serratia marcescens = assay: Antibacterial activity against Serratia marcescens A20019 by 2-fold tube dilution method; format: functional
# Enterobacter cloacae = assay: Antibacterial activity against Enterobacter cloacae A-9659 by 2-fold tube dilution method; format: functional
# Candida albicans [8] = assay: Antifungal activity against Candida albicans A-9540 by 2-fold tube dilution method; format: functional
# Candida albicans [9] = assay: Antifungal activity against Candida albicans A15049 by 2-fold tube dilution method; format: functional
# Candida albicans [10] = assay: Antifungal activity against Candida albicans A15050 by 2-fold tube dilution method; format: functional
# Candida tropicalis = assay: Antifungal activity against Candida tropicalis A15051 by 2-fold tube dilution method; format: functional
# Pichia kudriavzevii = assay: Antifungal activity against Candida krusei A15052 by 2-fold tube dilution method; format: functional
# [11] = tested on: Trichophyton mentagrophytes; assay: Antifungal activity against Trichophyton mentagrophytes A-9870 by 2-fold tube dilution method; format: functional
# Microsporum canis = assay: Antifungal activity against Microsporum canis A-9872 by 2-fold tube dilution method; format: functional
# L1210 [12] = assay: Antitumor activity against mouse L1210 cells xenografted in BDF1 mouse assessed as median survival time at 12.8 mg/kg, ip; format: functional; conditions: route intraperitoneal
# L1210 [13] = assay: Antitumor activity against mouse L1210 cells xenografted in BDF1 mouse assessed as median survival time at 6.4 mg/kg, ip; format: functional; conditions: route intraperitoneal
# L1210 [14] = assay: Antitumor activity against mouse L1210 cells xenografted in BDF1 mouse assessed as median survival time at 3.2 mg/kg, ip; format: functional; conditions: route intraperitoneal
# L1210 [15] = assay: Antitumor activity against mouse L1210 cells xenografted in BDF1 mouse assessed as median survival time at 1.6 mg/kg, ip; format: functional; conditions: route intraperitoneal
# L1210 [16] = assay: Antitumor activity against mouse L1210 cells xenografted in BDF1 mouse assessed as median survival time at 51.2 mg/kg, ip; format: functional; conditions: route intraperitoneal
# L1210 [17] = assay: Antitumor activity against mouse L1210 cells xenografted in BDF1 mouse assessed as median survival time at 25.6 mg/kg, ip; format: functional; conditions: route intraperitoneal
# L1210 [18] = assay: Antitumor activity against mouse L1210 cells xenografted in BDF1 mouse at 12.8 mg/kg, ip relative to control; format: functional; conditions: route intraperitoneal
# L1210 [19] = assay: Antitumor activity against mouse L1210 cells xenografted in BDF1 mouse at 6.4 mg/kg, ip relative to control; format: functional; conditions: route intraperitoneal
# L1210 [20] = assay: Antitumor activity against mouse L1210 cells xenografted in BDF1 mouse at 3.2 mg/kg, ip relative to control; format: functional; conditions: route intraperitoneal
# L1210 [21] = assay: Antitumor activity against mouse L1210 cells xenografted in BDF1 mouse at 1.6 mg/kg, ip relative to control; format: functional; conditions: route intraperitoneal
# L1210 [22] = assay: Antitumor activity against mouse L1210 cells xenografted in BDF1 mouse at 51.2 mg/kg, ip relative to control; format: functional; conditions: route intraperitoneal
# L1210 [23] = assay: Antitumor activity against mouse L1210 cells xenografted in BDF1 mouse at 25.6 mg/kg, ip relative to control; format: functional; conditions: route intraperitoneal
# L1210 [24] = assay: Antitumor activity against mouse L1210 cells xenografted in BDF1 mouse assessed as change in tumor average weight at 12.8 mg/kg, ip; format: functional; conditions: route intraperitoneal
# L1210 [25] = assay: Antitumor activity against mouse L1210 cells xenografted in BDF1 mouse assessed as change in tumor average weight at 6.4 mg/kg, ip; format: functional; conditions: route intraperitoneal
# L1210 [26] = assay: Antitumor activity against mouse L1210 cells xenografted in BDF1 mouse assessed as change in tumor average weight at 3.2 mg/kg, ip; format: functional; conditions: route intraperitoneal
# L1210 [27] = assay: Antitumor activity against mouse L1210 cells xenografted in BDF1 mouse assessed as change in tumor average weight at 1.6 mg/kg, ip; format: functional; conditions: route intraperitoneal
# L1210 [28] = assay: Antitumor activity against mouse L1210 cells xenografted in BDF1 mouse assessed as change in tumor average weight at 51.2 mg/kg, ip; format: functional; conditions: route intraperitoneal
# L1210 [29] = assay: Antitumor activity against mouse L1210 cells xenografted in BDF1 mouse assessed as change in tumor average weight at 25.6 mg/kg, ip; format: functional; conditions: route intraperitoneal
# Mus musculus [30] = assay: Toxicity in BDF1 mouse xenografted with mouse L1210 cells assessed as survival at 12.8 mg/kg, ip after 5 days; format: organism-based; design: dose 12.8 mg/kg, route intraperitoneal; conditions: in vivo, 120 h
smiles,measurement,setting,value
CC[C@@]1(O)C[C@H](O[C@H]2C[C@H](NC)[C@H](O[C@H]3C[C@H](O)[C@H](O[C@@H]4C[C@H](O)[C@H](O)[C@H](C)O4)[C@H](C)O3)[C@@H](C)O2)c2c(cc3c(c2O)C(=O)c2c(O)ccc(O)c2C3=O)[C@H]1C(=O)OC [ALCINDOROMYCIN],Activity,Mus musculus [1],Non-toxic
same,Activity,Mus musculus [2],Non-toxic
same,Activity,Mus musculus [3],Non-toxic
same,Activity,Mus musculus [4],Non-toxic
same,Activity,Mus musculus [5],Non-toxic
same,MIC,Pseudomonas aeruginosa,> 125 µg/mL
same,MIC,Enterococcus faecalis,8 µg/mL
same,MIC,Staphylococcus,63 µg/mL
same,MIC,Streptococcus pneumoniae,1 µg/mL
same,MIC,Streptococcus pyogenes,2 µg/mL
same,MIC,Staphylococcus aureus,8 µg/mL
same,MIC,Escherichia coli [6],> 125 µg/mL
same,MIC,Escherichia coli [7],> 125 µg/mL
same,MIC,Klebsiella pneumoniae,> 125 µg/mL
same,MIC,Proteus mirabilis,> 125 µg/mL
same,MIC,Proteus vulgaris,> 125 µg/mL
same,MIC,Serratia marcescens,> 125 µg/mL
same,MIC,Enterobacter cloacae,> 125 µg/mL
same,MIC,Candida albicans [8],> 16 µg/mL
same,MIC,Candida albicans [9],> 16 µg/mL
same,MIC,Candida albicans [10],> 16 µg/mL
same,MIC,Candida tropicalis,> 16 µg/mL
same,MIC,Pichia kudriavzevii,> 16 µg/mL
same,MIC,[11],> 16 µg/mL
same,MIC,Microsporum canis,> 16 µg/mL
same,Activity,L1210 [12],9.5 days
same,Activity,L1210 [13],8 days
same,Activity,L1210 [14],8.5 days
same,Activity,L1210 [15],7 days
same,Activity,L1210 [16],11 days
same,Activity,L1210 [17],10 days
same,T/C,L1210 [18],128%
same,T/C,L1210 [19],107%
same,T/C,L1210 [20],113%
same,T/C,L1210 [21],93%
same,T/C,L1210 [22],147%
same,T/C,L1210 [23],133%
same,Activity,L1210 [24],-0.8 g
same,Activity,L1210 [25],0.6 g
same,Activity,L1210 [26],0.5 g
same,Activity,L1210 [27],1.3 g
same,Activity,L1210 [28],-2.7 g
same,Activity,L1210 [29],-1.9 g
same,Activity,Mus musculus [30],Non-toxic
CC[C@@]1(O)C[C@H](O[C@H]2C[C@H](N(C)C)[C@H](O[C@H]3C[C@H](O)[C@H](O)[C@@H](C)O3)[C@@H](C)O2)c2c(cc3c(c2O)C(=O)c2c(O)ccc(O)c2C3=O)[C@H]1C(=O)OC [COLLINEMYCIN],Activity,Mus musculus [1],Non-toxic
same,Activity,Mus musculus [2],Non-toxic
same,Activity,Mus musculus [3],Non-toxic
same,MIC,Pseudomonas aeruginosa,> 125 µg/mL
same,MIC,Enterococcus faecalis,63 µg/mL
same,MIC,Staphylococcus,63 µg/mL
same,MIC,Streptococcus pneumoniae,2 µg/mL
same,MIC,Streptococcus pyogenes,8 µg/mL
same,MIC,Staphylococcus aureus,16 µg/mL
same,MIC,Escherichia coli [6],> 125 µg/mL
same,MIC,Escherichia coli [7],> 125 µg/mL
same,MIC,Klebsiella pneumoniae,> 125 µg/mL
same,MIC,Proteus mirabilis,> 125 µg/mL
same,MIC,Proteus vulgaris,> 125 µg/mL
same,MIC,Serratia marcescens,> 125 µg/mL
same,MIC,Enterobacter cloacae,> 125 µg/mL
same,MIC,Candida albicans [8],> 16 µg/mL
same,MIC,Candida albicans [9],> 16 µg/mL
same,MIC,Candida albicans [10],> 16 µg/mL
same,MIC,Candida tropicalis,> 16 µg/mL
same,MIC,Pichia kudriavzevii,> 16 µg/mL
same,MIC,[11],> 16 µg/mL
same,MIC,Microsporum canis,> 16 µg/mL
same,Activity,L1210 [12],10 days
same,Activity,L1210 [13],8 days
same,Activity,L1210 [14],8 days
same,Activity,L1210 [15],8 days
same,Activity,L1210 [16],11 days
same,Activity,L1210 [17],11 days
same,T/C,L1210 [18],133%
same,T/C,L1210 [19],107%
same,T/C,L1210 [20],107%
same,T/C,L1210 [21],107%
same,T/C,L1210 [22],147%
same,T/C,L1210 [23],147%
same,Activity,L1210 [24],-2.3 g
same,Activity,L1210 [25],-1.2 g
same,Activity,L1210 [26],1.3 g
same,Activity,L1210 [27],-0.3 g
same,Activity,L1210 [28],-2.5 g
same,Activity,L1210 [29],-4.2 g
same,Activity,Mus musculus [30],Non-toxic
CC[C@@]1(O)C[C@H](O[C@H]2C[C@H](N(C)C)[C@H](O[C@H]3C[C@H](O)[C@H](O[C@@H]4C[C@H](O)[C@H](O)[C@H](C)O4)[C@H](C)O3)[C@@H](C)O2)c2c(cc3c(c2O)C(=O)c2c(O)ccc(O)c2C3=O)[C@@H]1C(=O)OC [MIMIMYCIN],Activity,Mus musculus [1],Non-toxic
same,Activity,Mus musculus [2],Non-toxic
same,Activity,Mus musculus [3],Non-toxic
same,MIC,Pseudomonas aeruginosa,> 125 µg/mL
same,MIC,Enterococcus faecalis,4 µg/mL
same,MIC,Staphylococcus,63 µg/mL
same,MIC,Streptococcus pneumoniae,1 µg/mL
same,MIC,Streptococcus pyogenes,2 µg/mL
same,MIC,Staphylococcus aureus,8 µg/mL
same,MIC,Escherichia coli [6],> 125 µg/mL
same,MIC,Escherichia coli [7],> 125 µg/mL
same,MIC,Klebsiella pneumoniae,> 125 µg/mL
same,MIC,Proteus mirabilis,> 125 µg/mL
same,MIC,Proteus vulgaris,> 125 µg/mL
same,MIC,Serratia marcescens,> 125 µg/mL
same,MIC,Enterobacter cloacae,> 125 µg/mL
same,MIC,Candida albicans [8],> 16 µg/mL
same,MIC,Candida albicans [9],> 16 µg/mL
same,MIC,Candida albicans [10],> 16 µg/mL
same,MIC,Candida tropicalis,> 16 µg/mL
same,MIC,Pichia kudriavzevii,> 16 µg/mL
same,MIC,[11],> 16 µg/mL
same,MIC,Microsporum canis,> 16 µg/mL
same,Activity,L1210 [12],8.5 days
same,Activity,L1210 [13],9 days
same,Activity,L1210 [14],8 days
same,Activity,L1210 [15],7.5 days
same,Activity,L1210 [16],10 days
same,Activity,L1210 [17],8 days
same,T/C,L1210 [18],113%
same,T/C,L1210 [19],120%
same,T/C,L1210 [20],107%
same,T/C,L1210 [21],100%
same,T/C,L1210 [22],133%
same,T/C,L1210 [23],107%
same,Activity,L1210 [24],-0.3 g
same,Activity,L1210 [25],-1.3 g
same,Activity,L1210 [26],1.3 g
same,Activity,L1210 [27],0.5 g
same,Activity,L1210 [28],-3.2 g
same,Activity,L1210 [29],0.1 g
same,Activity,Mus musculus [30],Non-toxic
